Values after ≈ are worked out from the molar mass of the structure shown.
How the values were obtained:
Cavia porcellus [1] = test: Bronchodilatory activity in IT dosed Dunkin Hartley guinea pig model assessed as inhibition of acetylcholine-induced bronchoconstriction measured after 1 hr by Konzett-Roessler methodology; assay type: functional
[2] = Antiinflammatory activity in human PBMCs assessed as inhibition of LPS-induced TNF-alpha release measured after 18 hrs by ELISA; assay type: functional, tissue-based, PBMC; conditions: for IC50: Homo sapiens, PBMC, 18 h; for pIC50: pbmc
[3] = Antagonist activity at muscarinic M3 receptor in guinea pig trachea assessed as inhibition of carbachol-induced contraction; assay type: tissue-based, Cavia porcellus
Cavia porcellus [4] = test: Bronchodilatory activity in Dunkin Hartley guinea pig model assessed as inhibition of acetylcholine-induced bronchoconstriction at 3 nmol/kg, IT measured after 1 hr by Konzett-Roessler methodology relative to control; assay type: functional; conditions: for inhibition in vivo at 0.003 µmol/kg: Cavia porcellus, Dunkin Hartley
[5] = target: T1, Muscarinic acetylcholine receptor M3 (Homo sapiens, UniProt P20309); test: Displacement of [3H]-N-methyl Scopolamine Chloride from human M3 receptor membranes incubated for 2 hrs by scintillation counting analysis; assay type: cell membranes, Cell membrane
Target sequence in this assay (P20309 whole entry): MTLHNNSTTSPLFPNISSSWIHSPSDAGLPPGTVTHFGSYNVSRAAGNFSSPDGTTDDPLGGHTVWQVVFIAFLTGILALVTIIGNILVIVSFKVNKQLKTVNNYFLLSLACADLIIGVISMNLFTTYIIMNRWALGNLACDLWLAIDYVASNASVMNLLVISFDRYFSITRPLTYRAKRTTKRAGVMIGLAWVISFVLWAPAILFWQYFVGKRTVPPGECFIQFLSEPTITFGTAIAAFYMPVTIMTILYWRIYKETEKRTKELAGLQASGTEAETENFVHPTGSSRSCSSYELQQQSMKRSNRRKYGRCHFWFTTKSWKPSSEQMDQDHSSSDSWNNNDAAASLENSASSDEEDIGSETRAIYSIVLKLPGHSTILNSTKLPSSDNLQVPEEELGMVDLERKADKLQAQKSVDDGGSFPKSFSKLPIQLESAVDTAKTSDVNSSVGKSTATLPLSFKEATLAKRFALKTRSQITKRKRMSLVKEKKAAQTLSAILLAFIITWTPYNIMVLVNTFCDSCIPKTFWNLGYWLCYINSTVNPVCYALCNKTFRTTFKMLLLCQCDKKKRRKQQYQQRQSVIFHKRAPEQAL

[6] = target: 3',5'-cyclic-AMP phosphodiesterase 4B (Homo sapiens, UniProt Q07343); test: Inhibition of human recombinant PDE4B2 assessed as […] in cAMP level incubated for 2 hrs by LANCE Ultra cAMP TR-FRET assay
Sequence of 3',5'-cyclic-AMP phosphodiesterase 4B (Q07343 whole entry): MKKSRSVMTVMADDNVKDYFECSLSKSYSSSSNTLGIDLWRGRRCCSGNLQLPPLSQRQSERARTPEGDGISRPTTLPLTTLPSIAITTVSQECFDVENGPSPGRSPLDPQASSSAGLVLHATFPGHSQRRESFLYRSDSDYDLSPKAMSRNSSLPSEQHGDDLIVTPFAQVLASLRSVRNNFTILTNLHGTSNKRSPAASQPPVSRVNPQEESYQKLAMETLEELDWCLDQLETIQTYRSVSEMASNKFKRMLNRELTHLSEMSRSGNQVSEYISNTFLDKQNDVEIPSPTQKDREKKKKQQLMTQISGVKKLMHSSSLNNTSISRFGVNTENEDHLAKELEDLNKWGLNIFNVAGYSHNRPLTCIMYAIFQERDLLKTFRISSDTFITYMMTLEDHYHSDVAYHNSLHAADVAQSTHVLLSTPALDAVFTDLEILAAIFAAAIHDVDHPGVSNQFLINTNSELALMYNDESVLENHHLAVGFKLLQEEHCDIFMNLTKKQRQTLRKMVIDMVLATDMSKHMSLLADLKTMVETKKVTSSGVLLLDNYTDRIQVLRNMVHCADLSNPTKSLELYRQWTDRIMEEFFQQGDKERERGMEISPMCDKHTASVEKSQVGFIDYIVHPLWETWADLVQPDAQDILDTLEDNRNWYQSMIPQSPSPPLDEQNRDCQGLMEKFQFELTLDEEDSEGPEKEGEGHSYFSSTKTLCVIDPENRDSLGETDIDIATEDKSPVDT

[7] = Kinetic solubility of compound in PBS at pH 7.4 […] incubated for 2 hrs by LC-UV and LC-MS analysis; assay type: physicochemical; conditions: read-out: Kinetic_solubility
Cavia porcellus [8] = test: Bronchodilatory activity in Dunkin Hartley guinea pig model assessed as inhibition of acetylcholine-induced bronchoconstriction at 10 nmol/kg, IT measured after 1 hr by Konzett-Roessler methodology relative to control; assay type: functional
[9] = target: 3',5'-cyclic phosphodiesterase; test: Inhibition of PDE4 in human U-937 cells assessed as […] in cAMP level by LANCE cAMP Assay; assay type: cell-based
Cavia porcellus [10] = test: Bronchodilatory activity in Dunkin Hartley guinea pig model assessed as inhibition of acetylcholine-induced bronchoconstriction at 3 nmol/kg, IT measured after 16 hrs by Konzett-Roessler methodology relative to control; assay type: functional; conditions: for inhibition (INH): 0.003 umol/kg
[11] = target: T1, Muscarinic acetylcholine receptor M3; test: Binding affinity to human M3 receptor membranes assessed as dissociation half life by liquid scintillation counting analysis; conditions: Cell membrane, filed as antagonist
Target sequence in this assay (P20309 whole entry, looked up): as the sequence (P20309 whole entry) above

[12] = target: T1, Muscarinic acetylcholine receptor M3; test: Binding affinity to human M3 receptor membranes assessed as association half life by liquid scintillation counting analysis; conditions: Cell membrane, filed as antagonist
Target sequence in this assay (P20309 whole entry, looked up): as the sequence (P20309 whole entry) above

[13] = target: Muscarinic acetylcholine receptor M3 (Rattus norvegicus, UniProt P08483); test: Antagonist activity at muscarinic M3 receptor in rat trachea assessed as inhibition of carbachol-induced contraction; assay type: functional, tissue-based
Sequence of Muscarinic acetylcholine receptor M3 (Rattus norvegicus, UniProt P08483) (P08483 whole entry): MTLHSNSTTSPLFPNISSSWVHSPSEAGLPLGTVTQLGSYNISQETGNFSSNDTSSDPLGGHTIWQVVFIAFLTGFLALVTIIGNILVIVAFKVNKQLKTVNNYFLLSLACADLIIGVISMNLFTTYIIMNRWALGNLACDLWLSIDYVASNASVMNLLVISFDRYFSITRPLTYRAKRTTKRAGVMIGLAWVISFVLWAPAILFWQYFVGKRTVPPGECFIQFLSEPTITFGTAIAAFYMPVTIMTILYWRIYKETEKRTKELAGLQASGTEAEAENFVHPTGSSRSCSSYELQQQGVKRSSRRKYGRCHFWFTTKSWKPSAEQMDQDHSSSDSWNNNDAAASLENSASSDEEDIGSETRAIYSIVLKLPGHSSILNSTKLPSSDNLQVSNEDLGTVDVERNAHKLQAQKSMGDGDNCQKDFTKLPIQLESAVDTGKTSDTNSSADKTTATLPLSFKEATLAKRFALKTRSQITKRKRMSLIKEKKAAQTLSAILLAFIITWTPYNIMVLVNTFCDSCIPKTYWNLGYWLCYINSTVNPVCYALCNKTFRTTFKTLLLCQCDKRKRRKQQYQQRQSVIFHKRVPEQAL

[14] = Microsomal stability in rat liver microsomes assessed as intrinsic clearance at 1 uM measured up to 60 mins by HPLC-MS/MS analysis; assay type: ADME, Microsome; conditions: read-out: CLH
Rattus norvegicus [15] = test: Antiinflammatory activity in ovalbumin induced Brown Norway rat airway inflammation model assessed as reduction in eosinophil counts in bronchoalveolar lavage administered via inhalation for 3 consecutive days and measured after 24 hrs post last dose; assay type: functional; conditions: inhaled or nasal
[16] = target: T2, Muscarinic acetylcholine receptor M2 (Homo sapiens, UniProt P08172); test: Displacement of [3H]-N-methyl Scopolamine Chloride from human M2 receptor membranes incubated for 2 hrs by scintillation counting analysis; assay type: cell membranes, Cell membrane
T2 sequence (P08172 whole entry): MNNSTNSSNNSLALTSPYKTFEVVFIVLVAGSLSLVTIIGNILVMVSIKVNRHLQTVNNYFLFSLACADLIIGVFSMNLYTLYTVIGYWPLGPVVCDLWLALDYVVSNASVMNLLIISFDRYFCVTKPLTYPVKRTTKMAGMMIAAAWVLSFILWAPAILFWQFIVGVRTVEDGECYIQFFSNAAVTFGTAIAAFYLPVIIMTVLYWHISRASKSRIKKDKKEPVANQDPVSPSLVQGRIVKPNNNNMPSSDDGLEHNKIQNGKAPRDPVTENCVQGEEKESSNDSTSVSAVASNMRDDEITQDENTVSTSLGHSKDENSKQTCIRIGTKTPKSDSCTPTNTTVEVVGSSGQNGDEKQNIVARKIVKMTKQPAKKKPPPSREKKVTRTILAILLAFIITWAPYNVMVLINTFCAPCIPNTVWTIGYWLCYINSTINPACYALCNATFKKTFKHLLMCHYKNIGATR

[17] = Permeability across apical to basolateral side in human Caco2 cells at 10 uM measured after 1 hr by LC-MS/MS analysis; assay type: ADME, cell-based; conditions: Caco-2
[18] = Toxicity in ferret assessed as induction of emesis at 1 umol/kg, IT measured for 4 hrs; design: species or system Mustela putorius furo; conditions: in vivo, inhaled_or_intranasal, dose 1 µmol/kg
[19] = Toxicity in ferret assessed as induction of emesis at 10 umol/kg, IT measured for 4 hrs; design: species or system Mustela putorius furo; conditions: in vivo, inhaled_or_intranasal, dose 10 µmol/kg
[20] = Stability in human plasma assessed as half life at 5 uM measured up to 180 mins by HPLC-MS/MS analysis; assay type: ADME, cell-free
[21] = Plasma protein binding in rat assessed as bound fraction at 0.5 to 2 uM measured after 30 mins by HPLC-MS/MS analysis; assay type: ADME, cell-free; conditions: dose 0.5-2 µM, read-out: PPB (converted)
[22] = Plasma protein binding in human assessed as bound fraction at 0.5 to 2 uM measured after 30 mins by HPLC-MS/MS analysis; assay type: ADME, cell-free; conditions: dose 0.5-2 µM, read-out: PPB (converted)
[23] = Microsomal stability in human liver microsomes assessed as intrinsic clearance at 1 uM measured up to 60 mins by HPLC-MS/MS analysis; assay type: ADME, Microsome; conditions: read-out: CLH
Rattus norvegicus [24] = test: Antiinflammatory activity in ovalbumin induced Brown Norway rat airway inflammation model assessed as reduction in eosinophil counts in bronchoalveolar lavage at 1 umol/kg, INH for 3 consecutive days and measured after 24 hrs post last dose; assay type: functional; design: scale not given: the % may be the effect or the level left; conditions: dose 1 µmol/kg; time 3 day
[25] = Toxicity in ferret assessed as nausea-like score at 1 umol/kg, IT observed for 4 hrs (Rvb= 12.83+/-5.10); design: species or system Mustela putorius furo; conditions: in vivo, inhaled_or_intranasal, dose 1 µmol/kg
[26] = Stability in rat plasma assessed as half life at 5 uM measured up to 180 mins by HPLC-MS/MS analysis; assay type: ADME, cell-free
[27] = Toxicity in ferret assessed as nausea-like score at 10 umol/kg, IT observed for 4 hrs (Rvb= 12.83+/-5.10); design: species or system Mustela putorius furo; conditions: in vivo, inhaled_or_intranasal, dose 10 µmol/kg
Cavia porcellus [28] = test: Bronchodilatory activity in Dunkin Hartley guinea pig model assessed as inhibition of acetylcholine-induced bronchoconstriction at 30 nmol/kg, IT measured after 16 hrs by Konzett-Roessler methodology relative to control; assay type: functional
Cavia porcellus [29] = test: Bronchodilatory activity in Dunkin Hartley guinea pig model assessed as inhibition of acetylcholine-induced bronchoconstriction at 30 nmol/kg, IT measured after 1 hrs by Konzett-Roessler methodology relative to control; assay type: functional
[30] = Cavia porcellus, Dunkin Hartley, 1 h, read-out: ED50
[31] = Cavia porcellus, Dunkin Hartley, read-out: ED50

COc1ccc([C@H](Cc2c(Cl)c[n+]([O-])cc2Cl)OC(=O)c2ccc(CN(C(=O)O[C@H]3CN4CCC3CC4)c3ccccc3)s2)cc1OC
ED50 (Cavia porcellus [1]; [30]): 0.0016 µmol/kg
IC50 [2]: 0.794 nM
pIC50 [3]: 8.4
inhibition in vivo at 0.003 µmol/kg (Cavia porcellus [4]; 1 h): 82%
Ki [5]: 0.1 nM
IC50 [6]: 1 nM

CCOc1cc([C@H](Cc2c(Cl)c[n+]([O-])cc2Cl)OC(=O)c2ccc(CN(C(=O)O[C@H]3CN4CCC3CC4)c3ccccc3F)s2)ccc1OC(F)F
solubility kinetic at 2 h [7]: < 5 µM
pIC50 [3]: 8.3
Ki [5]: 0.316 nM

COc1ccc([C@H](Cc2c(Cl)c[n+]([O-])cc2Cl)OC(=O)c2ccc(CN(C(=O)O[C@H]3CN4CCC3CC4)c3ccccn3)s2)cc1OC
IC50 [2]: 0.501 nM
pIC50 [3]: 8.7
inhibition in vivo at 0.01 µmol/kg (Cavia porcellus [8]): 78%
Ki [5]: 0.501 nM
IC50 [6]: 0.631 nM

CC(C)Oc1cc([C@H](Cc2c(Cl)c[n+]([O-])cc2Cl)OC(=O)c2ccc(CN(C(=O)O[C@H]3CN4CCC3CC4)c3ccccc3F)s2)ccc1OC(F)F
solubility kinetic at 2 h [7]: < 5 µM
pIC50 [3]: 7.5
Ki [5]: 0.316 nM

COc1ccc([C@H](Cc2c(Cl)c[n+]([O-])cc2Cl)OC(=O)c2cccc(CN(C(=O)O[C@H]3CN4CCC3CC4)c3ccccc3)c2)cc1OC
pIC50 [9]: 9
IC50 [2]: 5.01 nM
pIC50 [3]: 9.2
Ki [5]: 0.316 nM
IC50 [6]: 6.31 nM

COc1cc([C@H](Cc2c(Cl)c[n+]([O-])cc2Cl)OC(=O)c2ccc(CN(C(=O)O[C@H]3CN4CCC3CC4)c3ccccc3F)s2)ccc1OC(F)F
solubility kinetic at 2 h [7]: < 5 µM
pIC50 [3]: 8.2
Ki [5]: 0.251 nM

O=C(O[C@@H](Cc1c(Cl)c[n+]([O-])cc1Cl)c1ccc(OC(F)F)c(OCC2CC2)c1)c1ccc(CN(C(=O)O[C@H]2CN3CCC2CC3)c2ccccc2F)s1
solubility kinetic at 2 h [7]: < 5 µM
pIC50 [3]: 8.2
Ki [5]: 0.2 nM

COc1ccc([C@H](Cc2c(Cl)c[n+]([O-])cc2Cl)OC(=O)c2ccc(CN(C(=O)O[C@H]3CN4CCC3CC4)c3ccccc3F)s2)cc1OC
ED50 (Cavia porcellus [1]; [30]): 0.0005 µmol/kg
solubility kinetic at 2 h [7]: 134 µM (≈ 97.9 µg/mL)
inhibition in vivo at 0.003 µmol/kg (Cavia porcellus [10]; Cavia porcellus, Dunkin Hartley): 38%
IC50 [2]: 1.26 nM
pIC50 [3]: 9.1
inhibition in vivo at 0.003 µmol/kg (Cavia porcellus [4]; 1 h): 97%
Ki [5]: 0.126 nM
IC50 [6]: 0.501 nM

C[N+]1(C)[C@@H]2C[C@H](OC(=O)C(O)(c3cccs3)c3cccs3)C[C@H]1[C@@H]1O[C@@H]12
T1/2 [11]: 22.5 h
T1/2 [12]: 10.3 h

COc1ccc([C@H](Cc2c(Cl)c[n+]([O-])cc2Cl)OC(=O)c2ccc(CNC(C(=O)O[C@H]3CN4CCC3CC4)c3ccccc3)s2)cc1OC (stereo in doubt; 91a)
ED50 (Cavia porcellus [1]; 1 h): 0.0016 µmol/kg
IC50 [13]: 2 nM
inhibition (INH) (Cavia porcellus [10]): 32%
IC50 [2]: 3.16 nM
pIC50 [3]: 8.9
inhibition in vivo at 0.003 µmol/kg (Cavia porcellus [4]; 1 h): 73%
Ki [5]: 0.126 nM
IC50 [6]: 1.58 nM

COc1ccc([C@H](Cc2c(Cl)c[n+]([O-])cc2Cl)OC(=O)c2ccc(CNC(C(=O)O[C@H]3CN4CCC3CC4)c3ccccc3)s2)cc1OC (stereo in doubt; 92a) [listing 1 of 2 here]
ED50 (Cavia porcellus [1]; 1 h): 0.0007 µmol/kg
solubility kinetic at 2 h [7]: 145 µM (≈ 105 µg/mL)
IC50 [13]: 1 nM
inhibition (INH) (Cavia porcellus [10]): 67%
microsomal CLint at 1 µM [14]: 126 µL/min/mg
ED50 (Rattus norvegicus [15]): 0.03 µmol/kg
Ki [16]: 0.2 nM
Papp A→B at 1 h, 10 µM [17]: 1.6 ×10⁻⁶ cm/s
Activity [18]: Non-Toxic
pIC50 [2]: 8.8
pIC50 [3]: 9
Activity [19]: Non-Toxic
half-life at 5 µM [20]: 0.183 h
fraction unbound at 0.5 h, up to 2 µM [21]: 0.086
fraction unbound at 0.5 h, up to 2 µM [22]: 0.07
inhibition (INH) (Cavia porcellus [4]; 0.003 umol/kg, 1 h): 74%
microsomal CLint at 1 µM [23]: 213 µL/min/mg
Ki [5]: 0.0631 nM
pIC50 [6]: 8.8
Activity (Rattus norvegicus [24]): 54%
Activity [25]: 30.67
half-life at 5 µM [26]: 9 min
Activity [27]: 12.83

COc1ccc([C@H](Cc2c(Cl)c[n+]([O-])cc2Cl)OC(=O)c2ccc(CNC(C(=O)O[C@H]3CN4CCC3CC4)c3ccccc3)s2)cc1OC (stereo in doubt; 92a) [listing 2 of 2 here]
T1/2 [11]: 29.5 h
T1/2 [12]: 13.7 h

COc1ccc([C@H](Cc2c(Cl)c[n+]([O-])cc2Cl)OC(=O)c2ccc(CNC(C(=O)OC3CCN(C)CC3)c3ccccc3)s2)cc1OC (stereo in doubt; 92e)
ED50 (Cavia porcellus [1]; [31]): 0.0041 µmol/kg
IC50 [13]: 1.58 nM
pIC50 [2]: 8.6
inhibition in vivo at 0.03 µmol/kg (Cavia porcellus [28]): 2%
inhibition in vivo at 0.03 µmol/kg (Cavia porcellus [29]): 75%
Ki [5]: 0.251 nM
IC50 [6]: 0.501 nM

COc1ccc([C@H](Cc2c(Cl)c[n+]([O-])cc2Cl)OC(=O)c2ccc(CNC(C(=O)O[C@@H]3CCN(C)C3)c3ccccc3)s2)cc1OC (stereo in doubt; 92f)
ED50 (Cavia porcellus [1]; [31]): 0.001 µmol/kg
IC50 [13]: 1.58 nM
pIC50 [2]: 8.5
inhibition in vivo at 0.03 µmol/kg (Cavia porcellus [28]): 41%
inhibition in vivo at 0.003 µmol/kg (Cavia porcellus [4]): 96%
Ki [5]: 0.126 nM
IC50 [6]: 1.58 nM

O=C(Nc1c(Cl)cncc1Cl)c1ccc(OC(F)F)c(OCC2CC2)c1 [ROFLUMILAST]
Activity [19]: Toxic
Activity [27]: 72.5
